Tests used:
Experiment in all cases: relative viability (nuclei count vs DMSO), 5 days (fraction); higher = more cells survive
[1] = compound: CC(O)(CS(=O)(=O)c1ccc(F)cc1)C(=O)Nc1ccc(C#N)c(C(F)(F)F)c1 [Bicalutamide] + CS(=O)(=O)N1CCN(Cc2cc3nc(-c4cccc5[nH]ncc45)nc(N4CCOCC4)c3s2)CC1 [Pictilisib] (partner 1 µM)
Method in brief: (§1)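 Lung cancer cell lines in 1536-well plates got either a single drug or a fixed anchor-drug dose together with five library-drug doses (not always all listed) in √10 steps, by pin tool, on the day after seeding. Nuclei were counted after 5 days, and relative viability is the treated-to-vehicle ratio of nuclei counts. Values are medians of duplicate plates.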

Bromopyruvate + OSI-027 = compound: C(C(=O)C(=O)O)Br [Bromopyruvate] + COc1cccc2cc(-c3nc([C@H]4CC[C@H](C(=O)O)CC4)n4ncnc(N)c34)[nH]c12 [OSI-027] (partner 0.5 µM)
Method in brief: as §1

Bicalutamide + OSI-027 = compound: CC(O)(CS(=O)(=O)c1ccc(F)cc1)C(=O)Nc1ccc(C#N)c(C(F)(F)F)c1 [Bicalutamide] + COc1cccc2cc(-c3nc([C@H]4CC[C@H](C(=O)O)CC4)n4ncnc(N)c34)[nH]c12 [OSI-027] (partner 0.5 µM)
Method in brief: as §1

[2] = compound: CC(O)(CS(=O)(=O)c1ccc(F)cc1)C(=O)Nc1ccc(C#N)c(C(F)(F)F)c1 [Bicalutamide] + CC1(C)CCC(c2ccc(Cl)cc2)=C(CN2CCN(c3ccc(C(=O)NS(=O)(=O)c4ccc(N[C@H](CCN5CCOCC5)CSc5ccccc5)c(S(=O)(=O)C(F)(F)F)c4)cc3)CC2)C1 [Navitoclax] (partner 0.5 µM)
Method in brief: as §1

Question: Which relative viability ([1]; first compound 0.08 µM) does the source give for UMC-11 here?
Answer: The relative viability was 0.742.

Question: And the relative viability ([1]; first compound 0.253 µM)?
Answer: The relative viability was 0.621.

Question: What about the relative viability ([1]; first compound 0.8 µM) of the same cell line?
Answer: Its relative viability is 1.14.

Question: What about the relative viability ([1]; first compound 2.53 µM) of the same cell line?
Answer: The relative viability was 0.768.

Question: What about the relative viability (Bromopyruvate + OSI-027; first compound 1 µM) of the same cell line?
Answer: The relative viability was 0.518.

Question: And the relative viability (Bromopyruvate + OSI-027; first compound 3.162 µM)?
Answer: The relative viability was 0.452.

Question: What about the relative viability (Bromopyruvate + OSI-027; first compound 10 µM) of the same cell line?
Answer: The relative viability was 0.491.

Question: What about the relative viability (Bromopyruvate + OSI-027; first compound 31.62 µM) of the same cell line?
Answer: The relative viability was 0.533.

Question: What about the relative viability (Bromopyruvate + OSI-027; first compound 100 µM) of the same cell line?
Answer: Its relative viability is 0.501.

Question: What about the relative viability (Bicalutamide + OSI-027; first compound 0.08 µM) of the same cell line?
Answer: The relative viability was 0.505.

Question: And the relative viability (Bicalutamide + OSI-027; first compound 0.253 µM)?
Answer: The relative viability was 0.461.

Question: And the relative viability (Bicalutamide + OSI-027; first compound 0.8 µM)?
Answer: The relative viability was 0.591.

Question: And the relative viability (Bicalutamide + OSI-027; first compound 2.53 µM)?
Answer: Its relative viability is 0.395.

Question: And the relative viability ([2]; first compound 0.08 µM)?
Answer: The relative viability was 0.328.

Question: And the relative viability ([2]; first compound 0.253 µM)?
Answer: The relative viability was 0.25.

Question: What about the relative viability ([2]; first compound 0.8 µM) of the same cell line?
Answer: The relative viability was 0.281.

Question: What about the relative viability ([2]; first compound 2.53 µM) of the same cell line?
Answer: The relative viability was 0.279.

Source: the supplement of paper PMC10307832
